According to publication PMC11984924, “Dipeptidic Phosphonates: Potent Inhibitors of Pseudomonas aeruginosa Elastase B Showing Efficacy in a Murine Keratitis Model” (Advanced Science, 2025):
Like-named read-outs stand apart in the source and are kept apart here.

Legend:
LasB = target: T1, LasB (Pseudomonas aeruginosa, UniProt Q02RJ6); assay: In vitro LasB inhibition assay; format: biochemical; settings: for fold loss in inhibition: bulkier residues
T1 construct: made in house
Description: (§1) 3.1 In vitro inhibition assays
LasB was expressed and purified as described previously.[3] In vitro inhibition assays (LasB,
MMPs, TACE). All in vitro inhibition assays were performed as described previously.[10] […]
Fluorescence signals were measured using a CLARIOstar plate reader (BMG
Labtech, Ortenberg, Germany). […]

HepG2 cells = assay: Cytotoxicity HepG2; format: cell-based; settings: Homo sapiens, HepG2, read-out: HepG2 % inhibition at 100 µM (metabolic activity), 48 hours
Description: (§2) HepG2 (human hepatocellular carcinoma), HEK293 (human embryonal kidney) and A549
(§3) (human lung carcinoma) cells (2x10^5 cells per well) were seeded in 24-well in flat-bottomed
(§4) plates. Culturing of cells, incubations and OD measurements were performed as described
(§5) previously with small modifications.[14] Twenty-four hours after seeding the cells the incubation
(§6) was started by the addition of compounds in a final DMSO concentration of 1%. The living cell
(§7) mass was determined after 48 hours in a PHERAstar microplate reader (BMG labtech,
(§8) Ortenberg, Germany). Two independent measurements were performed for each compound.

TACE (ADAM17) = target: T2, TACE (ADAM17) (Homo sapiens, UniProt P78536); assay: TACE (ADAM17) inhibition (off-target); format: biochemical; settings: read-out: TACE (ADAM17) % inhibition at 100 µM
T2 construct: purchased Sigma-Aldrich (Saint Louis, MO)
T2 sequence (P78536 215-824): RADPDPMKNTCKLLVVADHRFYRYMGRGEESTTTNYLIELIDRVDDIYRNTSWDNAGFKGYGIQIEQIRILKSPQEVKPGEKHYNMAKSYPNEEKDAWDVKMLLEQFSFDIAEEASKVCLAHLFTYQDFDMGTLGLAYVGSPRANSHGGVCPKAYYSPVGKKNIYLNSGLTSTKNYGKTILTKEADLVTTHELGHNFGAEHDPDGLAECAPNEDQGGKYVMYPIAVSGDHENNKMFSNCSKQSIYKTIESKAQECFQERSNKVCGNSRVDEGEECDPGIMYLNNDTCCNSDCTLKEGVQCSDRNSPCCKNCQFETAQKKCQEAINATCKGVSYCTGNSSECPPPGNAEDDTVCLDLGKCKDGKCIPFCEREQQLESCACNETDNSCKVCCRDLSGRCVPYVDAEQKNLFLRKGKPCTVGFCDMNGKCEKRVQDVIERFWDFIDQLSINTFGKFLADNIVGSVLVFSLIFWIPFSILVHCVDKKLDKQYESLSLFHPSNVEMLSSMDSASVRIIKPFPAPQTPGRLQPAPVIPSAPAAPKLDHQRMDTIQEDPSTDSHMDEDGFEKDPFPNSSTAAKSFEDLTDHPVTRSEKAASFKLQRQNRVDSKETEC
Description: as §1
(§9) LasB was expressed and purified as described previously.[3] In vitro inhibition assays (LasB, MMPs, TACE). All in vitro inhibition assays were performed as described previously.[10] TACE inhibitor screening kits were purchased from Sigma-Aldrich (Saint Louis, MO). MMPs along with the SensoLyte 520 Generic MMP Activity Kit Fluorimetric were purchased from AnaSpec (Fremont, CA, USA). The assays were performed according to the guidelines of the respective manufacturer. Fluorescence signals were measured using a CLARIOstar plate reader (BMG Labtech, Ortenberg, Germany). […]
(§10) 3.8 Test against zinc metalloproteases MMP1–3 and TACE (ADAM17), and testing of
(§11) We selected a panel of human off -targets, including three human matrix metalloproteases (MMP-1, -2 and -3) and TACE (ADAM-17). These assays were performed as described previously.[3] The TACE inhibitor screening kit was purchased from Sigma -Aldrich (Saint Louis, MO). MMPs along with the SensoLyte 520 Generic MMP Activity Kit Fluorimetric were purchased from AnaSpec (Fremont, CA, USA). The assays were performed according to the guidelines of the respective manufacturer. Fluorescence signals were measured using a CLARIOstar plate reader (BMG Labtech, Ortenberg, Germany). […]
(§12) Table S6: Percent (%) inhibition of three MMPs (1 –3) and TACE (ADAM17) in presence of selected LasB inhibitors at 100 µM. Results are means and SD of at least two independent experiments. […]
(§13) Compound [% inhibition at [% inhibition at [% inhibition at [% inhibition at 100

MMP-1 = target: T3, MMP-1 (Homo sapiens, UniProt P03956); assay: MMP-1 inhibition (off-target); format: biochemical; settings: read-out: MMP-1 % inhibition at 100 µM
T3 construct: purchased AnaSpec (Fremont, CA, USA)
T3 sequence (P03956 100-469): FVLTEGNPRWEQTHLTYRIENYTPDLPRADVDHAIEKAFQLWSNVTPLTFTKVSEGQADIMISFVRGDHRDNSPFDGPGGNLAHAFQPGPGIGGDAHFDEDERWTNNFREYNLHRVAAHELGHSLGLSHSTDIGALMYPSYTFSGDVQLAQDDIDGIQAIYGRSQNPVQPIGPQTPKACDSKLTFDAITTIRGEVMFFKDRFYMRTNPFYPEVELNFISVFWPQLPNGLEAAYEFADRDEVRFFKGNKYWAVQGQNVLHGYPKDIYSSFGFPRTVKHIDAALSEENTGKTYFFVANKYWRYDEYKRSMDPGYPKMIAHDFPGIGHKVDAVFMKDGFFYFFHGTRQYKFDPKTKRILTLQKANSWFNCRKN
Description: as §1, §9, §10, §11, §12, §13

MMP-2 = target: T4, MMP-2 (Homo sapiens, UniProt P08253); assay: MMP-2 inhibition (off-target); format: biochemical; settings: read-out: MMP-2 % inhibition at 100 µM
T4 construct: purchased AnaSpec (Fremont, CA, USA)
T4 sequence (P08253 110-660): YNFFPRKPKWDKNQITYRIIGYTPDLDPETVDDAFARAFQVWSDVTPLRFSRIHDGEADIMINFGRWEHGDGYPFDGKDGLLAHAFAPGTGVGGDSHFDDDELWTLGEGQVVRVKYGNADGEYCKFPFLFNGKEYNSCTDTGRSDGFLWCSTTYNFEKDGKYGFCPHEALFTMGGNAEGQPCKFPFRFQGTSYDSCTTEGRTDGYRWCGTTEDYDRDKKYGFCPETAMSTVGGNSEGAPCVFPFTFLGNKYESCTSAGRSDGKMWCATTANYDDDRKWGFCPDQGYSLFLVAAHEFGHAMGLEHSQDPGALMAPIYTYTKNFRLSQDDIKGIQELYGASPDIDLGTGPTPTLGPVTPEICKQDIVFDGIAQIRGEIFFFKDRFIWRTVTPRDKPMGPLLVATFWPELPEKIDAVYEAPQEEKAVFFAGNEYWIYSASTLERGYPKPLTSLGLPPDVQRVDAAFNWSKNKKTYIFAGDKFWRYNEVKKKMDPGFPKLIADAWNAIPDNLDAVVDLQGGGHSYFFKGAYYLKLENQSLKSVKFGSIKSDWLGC
Description: 3.1 In vitro inhibition assays […]
MMPs, TACE). All in vitro inhibition assays were performed as described previously.[10] TACE inhibitor screening kits were purchased from Sigma-Aldrich (Saint Louis, MO). MMPs along with the SensoLyte 520 Generic MMP Activity Kit Fluorimetric were purchased from AnaSpec (Fremont, CA, USA). The assays were performed according to the guidelines of the respective manufacturer. Fluorescence signals were measured using a CLARIOstar plate reader (BMG Labtech, Ortenberg, Germany). […]
as §10, §11, §12, §13

[1] = system: Pseudomonas aeruginosa strain PA14; assay: Antibacterial effect on P. aeruginosa PA14 growth; format: cell-based; settings: PA14, read-out: P. aeruginosa PA14 % inhibition of growth at 100 µM, 18 h, 37 °C
Description: Table S14: Food consumption after treatment with (R)-30.
Table S15: Body and organ weights (gram) after treatment with (R)-30.
3.12 Antibacterial effects
As start OD600 of Pseudomonas aeruginosa strain PA14 we used 0.03 in a total volume of 200
µL in lysogeny broth containing the compounds predissolved in DMSO (max. 1%). Final
compound concentrations prepared from serial dilutions ranged from 3.125 to 100 µM (double
values for each concentration). The ODs were determined after addition of the compounds and
again after incubation for 18 h at 37 °C and 200 rpm in 96 well plates (Sarstedt, Nümbrecht,
Germany) using a FLUOStar Omega (BMG labtech, Ortenberg, Germany). Given percent (%)
inhibition values are means of at least two independent determinations. To obtain the values
for a given compound, their ODs were compared to those of DMSO controls. Concerning the […]

HEK293 cells = assay: Cytotoxicity HEK293; format: cell-based; settings: Homo sapiens, HEK293, read-out: HEK293 % inhibition at 100 µM (metabolic activity), 48 hours
Description: as §2, §3, §4, §5, §6, §7, §8

A549 cells = assay: Cytotoxicity A549; format: cell-based; settings: Homo sapiens, A549, read-out: A549 % inhibition at 100 µM (metabolic activity), 48 hours
Description: as §2, §3, §4, §5, §6, §7, §8

MMP-3 = target: T5, MMP-3 (Homo sapiens, UniProt P08254); assay: MMP-3 inhibition (off-target); format: biochemical; settings: read-out: MMP-3 % inhibition at 100 µM
T5 construct: purchased AnaSpec (Fremont, CA, USA)
T5 sequence (P08254 100-477): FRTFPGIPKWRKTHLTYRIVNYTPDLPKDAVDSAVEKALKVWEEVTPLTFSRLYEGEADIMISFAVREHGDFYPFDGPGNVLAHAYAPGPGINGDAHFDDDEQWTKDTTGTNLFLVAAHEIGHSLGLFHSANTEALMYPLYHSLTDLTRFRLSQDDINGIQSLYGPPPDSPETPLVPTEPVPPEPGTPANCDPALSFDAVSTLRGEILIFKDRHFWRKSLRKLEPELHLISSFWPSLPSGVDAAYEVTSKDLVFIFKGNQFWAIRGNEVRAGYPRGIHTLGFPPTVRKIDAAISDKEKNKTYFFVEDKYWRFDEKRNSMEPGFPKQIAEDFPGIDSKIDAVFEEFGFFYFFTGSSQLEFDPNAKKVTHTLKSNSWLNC
Description: as §1, §9, §10, §11, §12, §13

T1 sequence (Q02RJ6 198-498): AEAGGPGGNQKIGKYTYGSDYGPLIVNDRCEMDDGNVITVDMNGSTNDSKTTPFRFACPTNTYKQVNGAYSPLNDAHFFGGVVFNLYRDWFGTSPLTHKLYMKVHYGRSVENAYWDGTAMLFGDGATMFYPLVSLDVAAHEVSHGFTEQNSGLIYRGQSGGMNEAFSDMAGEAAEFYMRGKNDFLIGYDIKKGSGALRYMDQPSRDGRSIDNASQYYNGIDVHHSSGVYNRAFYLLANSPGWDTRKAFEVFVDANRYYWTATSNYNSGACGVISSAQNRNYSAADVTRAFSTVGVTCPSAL

| Compound | IC50 (LasB; IC50 LasB inhibition) [nM] | IC50 (LasB; read-out: IC50 LasB inhibition) [nM] | further results |
| --- | --- | --- | --- |
| COC[C@H](NC(=O)[C@@H](CC(C)C)P(=O)(O)O)C(=O)Nc1ccc(Cl)c(Cl)c1 [(R)‐18] | 86.7 ± 3.6 | – | – |
| CC(C)C[C@H](C(=O)N[C@@H](Cc1cccnc1)C(=O)Nc1ccc(Cl)c(Cl)c1)P(=O)(O)O [(R)‐25] | – | 574 ± 16 | – |
| COC[C@H](NC(=O)[C@H](CC(C)C)P(=O)(O)O)C(=O)Nc1ccc(Cl)c(Cl)c1 [(S)‐18] | 197 ± 5.4 | – | – |
| CC(=O)c1ccc(NC(=O)[C@@H](NC(=O)[C@H](CC(C)C)P(=O)(O)O)C(C)C)cc1 [(S)‐30] | 129 ± 4 | – | – |
| CC(C)C[C@@H](C(=O)N[C@H](C(=O)Nc1ccc(-n2ccnc2)cc1)C(C)C)P(=O)(O)O [(S)‐36] | 417 ± 14 | – | – |
| CC(C)CC(C(=O)Nc1ccc(C(F)(F)F)cc1)P(=O)(O)O (stereo not shown) [compound 5, reference compound] | – | – | fold enhancement in IC50 compared to the original hit (LasB; compared to thiol-based hit 4): 18 fold |
| CC(C)CC(C(=O)N[C@@H](C)C(=O)Nc1ccc(Cl)c(Cl)c1)P(=O)(O)O (stereo partly shown) [compound 8] | – | 61.7 ± 1.6 | fold increase in activity (LasB; alanine versus glycine dipeptide 7): 28 fold |
| CC(C)CC(C(=O)N[C@@H](C(=O)Nc1ccc(Cl)c(Cl)c1)C(C)C)P(=O)(O)O (stereo partly shown) [compound 10] | 11.3 ± 0.4 | – | – |
| CC(C)CC(C(=O)N[C@H](CC(=O)Nc1ccc(Cl)c(Cl)c1)C(C)C)P(=O)(O)O (stereo partly shown) [compound 11] | 2720 ± 55 | – | – |
| CC(C)CC(C(=O)N[C@H](C(=O)Nc1ccc(Cl)c(Cl)c1)C1CC1)P(=O)(O)O (stereo partly shown) [compound 12] | 28.8 ± 0.8 | – | – |
| CC[C@H](C)[C@H](NC(=O)C(CC(C)C)P(=O)(O)O)C(=O)Nc1ccc(Cl)c(Cl)c1 (stereo partly shown) [compound 15] | – | 13.1 ± 0.5 | – |
| CC(C)CC(C(=O)N[C@@H](CC1CC1)C(=O)Nc1ccc(Cl)c(Cl)c1)P(=O)(O)O (stereo partly shown) [compound 16] | – | 27.1 ± 0.9 | – |
| CC(C)CC(C(=O)N[C@@H](CC(C)C)C(=O)Nc1ccc(Cl)c(Cl)c1)P(=O)(O)O (stereo partly shown) [compound 17] | – | 59.4 ± 1.7 | – |
| CC(C)CC(C(=O)N[C@@H](CC1CCCCC1)C(=O)Nc1ccc(Cl)c(Cl)c1)P(=O)(O)O (stereo partly shown) [compound 19] | – | – | fold loss in inhibition (LasB): over 48 fold |
| CC(C)CC(C(=O)N[C@@H](CC1CCOCC1)C(=O)Nc1ccc(Cl)c(Cl)c1)P(=O)(O)O (stereo partly shown) [compound 20] | – | 379 ± 8 | fold loss in inhibition (LasB): over 48 fold |
| CC(C)CC(C(=O)N[C@H](C(=O)Nc1ccc(Cl)c(Cl)c1)c1ccccc1)P(=O)(O)O (stereo partly shown) [compound 22] | – | 99.6 ± 2.5 | – |
| CC(C)CC(C(=O)N[C@@H](Cc1ccccc1)C(=O)Nc1ccc(Cl)c(Cl)c1)P(=O)(O)O (stereo partly shown) [compound 23] | – | 426 ± 48 | – |
| CC(C)CC(C(=O)N[C@H](C(=O)Nc1ccc(Cl)cc1)C(C)C)P(=O)(O)O (stereo partly shown) [compound 27] | 9 ± 0.4 | – | – |
| CC(C)CC(C(=O)N[C@H](C(=O)Nc1cccc(Cl)c1)C(C)C)P(=O)(O)O (stereo partly shown) [compound 28] | 282 ± 13 | – | – |
| CC(C)CC(C(=O)N[C@H](C(=O)Nc1ccc(C(F)(F)F)cc1)C(C)C)P(=O)(O)O (stereo partly shown) [compound 29] | 15.2 ± 0.3 | – | – |
| CC(C)CC(C(=O)N[C@H](C(=O)Nc1ccc(C(=O)C(F)(F)F)cc1)C(C)C)P(=O)(O)O (stereo partly shown) [compound 31] | 21.7 ± 0.6 | – | inhibition at 100 µM (HepG2 cells): < 10%; inhibition at 100 µM (TACE (ADAM17)): < 10%; inhibition at 100 µM (MMP-1): < 10%; inhibition at 100 µM (MMP-2): < 10%; inhibition at 100 µM [1]: < 10%; inhibition at 100 µM (HEK293 cells): 19 ± 5%; inhibition at 100 µM (A549 cells): < 10%; inhibition at 100 µM (MMP-3): < 10% |
| Cc1ccc(NC(=O)[C@@H](NC(=O)C(CC(C)C)P(=O)(O)O)C(C)C)cc1 (stereo partly shown) [compound 32] | 12.9 ± 0.4 | – | – |
| COc1ccc(NC(=O)[C@@H](NC(=O)C(CC(C)C)P(=O)(O)O)C(C)C)cc1 (stereo partly shown) [compound 33] | 19.9 ± 0.8 | – | – |
| CC(C)CC(C(=O)N[C@H](C(=O)Nc1ccc(OC(C)C)cc1)C(C)C)P(=O)(O)O (stereo partly shown) [compound 34] | 56.7 ± 2 | – | – |
| CC(C)CC(C(=O)N[C@H](C(=O)Nc1ccc(Oc2ccccc2)cc1)C(C)C)P(=O)(O)O (stereo partly shown) [compound 35] | 8 ± 0.3 | – | – |
| CC(C)CC(C(=O)N[C@H](C(=O)Nc1ccc(N2CCOCC2)cc1)C(C)C)P(=O)(O)O (stereo partly shown) [compound 37] | 83.7 ± 2.1 | – | fold decrease in activity compared to 9 (LasB; compared to 9): 16 fold |
